Measurements: US20190030036A1, “PHOSPHODIESTERASE INHIBITOR TREATMENT” (Cyrano Therapeutics, Inc., priority 2013, published 2019)
Where two headings read alike, the source gives them in different places.

Experiments:
[1] = system: cGMP; test: Parotid saliva cGMP after oral theophylline (Example 2); format: in vivo, human; details: for saliva cGMP levels over initial values: improved patients; for cGMP: parotid saliva
Method: Parotid saliva was collected from each patient by application of a Lashley cup over Stensen's duct with lingual stimulation by placement of concentrated lemon juice. Saliva was collected in plastic tubes and stored at −20° C. until assayed. cAMP and cGMP were measured in saliva by a sensitive 96 plate spectrophotometric assay (R&D Systems, Minneapolis, Minn.).
All patients were placed in a fixed design open label clinical trial with treatment with oral theophylline. Treatment consisted of fixed treatment periods of two-eight months with sequential doses of the drug at 200 mg, 400 mg and 600 mg. At termination of each of these intervals, patients returned to study site for reevaluation. At the end of each interval subjective responses to treatment were measured with a modification of the 0-100 scale previously used. Subjective responses to treatment were graded on a sliding scale from −100−0-+100 with patients recording improvement (+0-+100), no improvement (0) or worsening (0-−100) of their overall smell function. If overall smell function improved ≥5% they were considered to improve clinically (1). If smell function improved <5% they were considered not to improve (1). At the end of each interval subjective measurements of smell function, measurements of DT, RT, ME and H and measurements of parotid saliva for levels of cAMP and cGMP were obtained. In addition, blood plasma was obtained by venipuncture, placed in ice into zinc free tubes which contained 100 mg zinc free heparin, centrifuged at 3000 rpm for 10-20 min, the plasma transferred to plastic PCR tubes and stored at −20° C. until assayed. Theophylline was assayed by a fluorescence polarization assay (Abbott, Chicago, Ill.), as previously described.
Data for the cyclic nucleotides from these 31 patients was not analyzed until the entire study of the 312 patients in Example 1 was assembled and analyzed in its entirety. After completion of these analyses, all data for parotid saliva cAMP and cGMP from all patients in whom salivary cAMP and cGMP were obtained were assembled. Levels of salivary cyclic nucleotides varied widely. Initially, without external criteria, there was no way to understand these disparate data. […] In a similar manner, measurements of each patient's plasma theophylline level at each dosage of theophylline (at 200 mg, 400 mg, 600 mg of theophylline) were categorized. The two patient groups were also analyzed post hoc with respect to type of smell loss and etiology of smell loss.

[2] = system: patients with hyposmia and hypogeusia
Method: Subjective changes in smell and taste function under each study condition were measured by questionnaire before measurements of smell or taste function. Responses were graded on a scale from 0 to 100, with 0 reflecting no subjective response in overall sensory function; 100, return to normal sensory function; and values between 0 and 100 intermediate responses. Overall sensory function was defined as the ability to smell all odors and identify all tastants, although response intensity varied.
In this prior trial, oral theophylline was administered daily in 2 divided doses (at breakfast and lunch) of 200, 400, 600, or 800 mg for 2 to 12 months of treatment. Treatment was divided into 2- to 4-month periods, at which time patients returned to The Clinic for measurements of subjective sensory responses, olfactometry, gustometry, serum theophylline level, and body weight.
Each patient delivered the theophylline dose in each naris once daily throughout the study. Patients underwent evaluation 1, 2, and 4 weeks during drug use with the same measurements used for the oral study.
Values for the oral trial were taken from the last measurements made before discontinuation of oral drug treatment and before initiation of the intranasal trial. […] Values for the intranasal pilot study were taken from measurements obtained after completion of 4 weeks of intranasal treatment.

Cn1c(=O)c2[nH]cnc2n(C)c1=O [theophylline]
saliva cGMP levels over initial values ([1]; oral theophylline 400 mg): 275% | saliva cGMP levels over initial values ([1]; oral theophylline 600 mg): 338% | cGMP ([1]; oral theophylline 200 mg, patients with improved smell function (15)): 0.08 ± 0.016 pmol/mL | cGMP ([1]; oral theophylline 200 mg, patients with unimproved smell function (9)): 0.07 ± 0.018 pmol/mL | cGMP ([1]; oral theophylline 400 mg, patients with unimproved smell function (4)): 0.05 ± 0.014 pmol/mL | cGMP ([1]; oral theophylline 600 mg, patients with unimproved smell function (5)): 0.04 ± 0.07 pmol/mL | earliest time improvement was measured ([2]; intranasal theophylline): 1 week | improvement in taste and smell functions compared with oral treatment ([2]; intranasal theophylline 20 μg/d in each naris, 4 weeks): 2 fold | patients reporting overall improvement in taste and smell functions ([2]; intranasal theophylline 20 μg/d in each naris, 4 weeks, 10 patients): 8 patients | earliest time improvement was measured ([2]; oral theophylline): 2 months | patients reporting overall increased taste and smell function ([2]; oral theophylline 200 to 800 mg/d, 2 to 12 months, 10 patients): 6 patients
